biological target: T1, GnRH receptor (Homo sapiens, UniProt P30968); assay: GnRH receptor membrane binding assay; conditions: not given
T1 construct: expressed in transfected cells
T1 sequence (P30968 1-328): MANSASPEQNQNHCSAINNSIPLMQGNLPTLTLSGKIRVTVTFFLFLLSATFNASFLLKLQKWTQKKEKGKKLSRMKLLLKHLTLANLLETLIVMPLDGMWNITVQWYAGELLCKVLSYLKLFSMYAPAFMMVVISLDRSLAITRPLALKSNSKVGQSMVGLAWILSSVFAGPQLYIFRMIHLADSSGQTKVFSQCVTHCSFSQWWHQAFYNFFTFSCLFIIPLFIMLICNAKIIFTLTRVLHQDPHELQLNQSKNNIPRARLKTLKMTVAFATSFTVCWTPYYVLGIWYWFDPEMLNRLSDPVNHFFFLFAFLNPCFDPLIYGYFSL
Protocol: Radio-Iodination of GnRH Peptide
The GnRH analog is labeled by the chloramine-T method. […] The reaction is stopped by the addition of 60 μg sodium metabisulfite and the free iodine is removed by passing the iodinated mixture through a C-8 Sep-Pak cartridge (Millipore Corp., Milford, Mass.). The peptide is eluted with a small volume of 80% acetonitrile/water. […] The purified radioactive peptide is stored in 0.1% BSA/20% acetonitrile/0.1% TFA at −80° C. and can be used for up to 4 weeks.
GnRH Receptor Membrane Binding Assay
Cells stably, or transiently, transfected with GnRH receptor expression vectors are harvested, resuspended in 5% sucrose and homogenized using a polytron homogenizer (2×15 sec). Nucleii are removed by centrifugation (3000×g for 5 min.), and the supernatant centrifuged (20,000×g for 30 min, 4° C.) to collect the membrane fraction. The final membrane preparation is resuspended in binding buffer (10 mM Hepes (pH 7.5), 150 mM NaCl, and 0.1% BSA) and stored at −70° C. Binding reactions are performed in a Millipore MultiScreen 96-well filtration plate assembly with polyethylenimine coated GF/C membranes. […] The reaction is terminated after 90 minutes by application of vacuum and washing (2×) with phosphate buffered saline. Bound radioactivity is measured using 96-well scintillation counting (Packard Topcount) or by removing the filters from the plate and direct gamma counting. Ki values are calculated from competition binding data using non-linear least squares regression using the Prism software package (GraphPad Software).

Ki, < 0.1 µM:
Cc1cccc(-c2c(C)n(Cc3c(F)cccc3F)c(=O)n(C[C@H](N)c3ccccc3)c2=O)c1F [8-17]

same assay, conditions: GnRH receptor membrane binding assay, [125I]-labeled GnRH peptide; read-out: Ki

Ki, < 0.1 µM:
COc1cccc(-c2c(C)n(Cc3c(F)cccc3F)c(=O)n(CCN(C)Cc3ccccn3)c2=O)c1 [1-3]
CCN(CCc1ccccn1)CCn1c(=O)c(-c2cccc(OC)c2)c(C)n(Cc2c(F)cccc2F)c1=O [1-10]
COc1cccc(-c2c(C)n(Cc3c(F)cccc3F)c(=O)n(CCN(C)CCc3cccc(Cl)n3)c2=O)c1 [1-11]
COc1cccc(-c2c(C)n(Cc3c(F)cccc3F)c(=O)n(CCN(CCc3ccccn3)CC3CC3)c2=O)c1 [1-12]
CCN1CCC(N(CC)CCn2c(=O)c(-c3cccc(OC)c3)c(C)n(Cc3c(F)cccc3F)c2=O)C1 (stereo not shown) [1-13]
Cc1c(-c2ccc3c(c2)OCO3)c(=O)n(CCN(C)CCc2ccccn2)c(=O)n1Cc1c(F)cccc1F [3-1]
CCN(CCc1ccccn1)CCn1c(=O)c(-c2ccc3c(c2)OCO3)c(C)n(Cc2c(F)cccc2F)c1=O [3-4]
Cc1c(-c2ccccc2F)c(=O)n(CCN(C)CCc2ccccn2)c(=O)n1Cc1c(F)cccc1F [6-1]
Cc1c(-c2ccc(Oc3ccccc3)cc2)c(=O)n(CCN(C)CCc2ccccn2)c(=O)n1Cc1c(F)cccc1F [6-2]
Cc1c(-c2ccc3c(c2)OCCO3)c(=O)n(CCN(C)CCc2ccccn2)c(=O)n1Cc1c(F)cccc1F [6-3]
Cc1c(-c2ccc(NC(=O)OCC(C)C)cc2)c(=O)n(CCN(C)CCc2ccccn2)c(=O)n1Cc1c(F)cccc1F [6-8]
COc1cccc(-c2c(C)n(Cc3c(F)cccc3F)c(=O)n(CCN3CCC(N4CCCC4)CC3)c2=O)c1 [7-2]
COc1cccc(-c2c(C)n(Cc3c(F)cccc3F)c(=O)n(CCN3CCC(NC(=O)C(F)(F)F)C3)c2=O)c1 (stereo not shown) [7-3]
COc1cccc(-c2c(C)n(Cc3c(F)cccc3F)c(=O)n(CCN3CCC(NC(=O)OC(C)(C)C)C3)c2=O)c1 (stereo not shown) [7-4]
COc1cccc(-c2c(C)n(Cc3c(F)cccc3F)c(=O)n(CCN3CC4CC3CO4)c2=O)c1 (stereo not shown) [7-10]
Cc1cc(=O)n(C[C@@H](N)Cc2ccccc2)c(=O)n1Cc1c(F)cccc1F [8-4]
Cc1cc(=O)n(C[C@H](N)Cc2ccccc2)c(=O)n1Cc1c(F)cccc1F [8-7]
Cc1cc(=O)n(C[C@@H](N)CC2CCCCC2)c(=O)n1Cc1c(F)cccc1F [8-12]
COc1cccc(-c2c(C)n(Cc3c(F)cccc3F)c(=O)n(C[C@H](N)COCc3ccccc3)c2=O)c1F [8-15]
COc1cccc(-c2c(C)n(Cc3c(F)cccc3F)c(=O)n(C[C@@H](N)CC(C)C)c2=O)c1F [8-23]
COc1cccc(-c2c(C)n(Cc3c(F)cccc3F)c(=O)n(C[C@H](N)C(C)C)c2=O)c1F [8-25]
Cc1cc(-c2c(C)n(Cc3c(F)cccc3F)c(=O)n(C[C@H](N)c3ccccc3)c2=O)ccc1F [8-44]
COc1cccc(-c2c(C)n(Cc3c(F)cccc3F)c(=O)n(C[C@H](N)C(=O)Nc3ccccc3)c2=O)c1 [8-51]
COc1ccc(-c2c(C)n(Cc3c(F)cccc3F)c(=O)n(C[C@H](N)c3ccccc3)c2=O)cn1 [8-58]
CCOc1cccc(-c2c(C)n(Cc3c(F)cccc3F)c(=O)n(C[C@H](N)c3ccccc3)c2=O)c1 [8-59]
CSc1cccc(-c2c(C)n(Cc3c(F)cccc3F)c(=O)n(C[C@H](N)c3ccccc3)c2=O)c1 [8-61]
COc1cccc(Oc2ccc(-c3c(C)n(Cc4c(F)cccc4F)c(=O)n(C[C@H](N)c4ccccc4)c3=O)cc2)c1 [8-68]
Cc1c(-c2ccc(Oc3cccc(Cl)c3)cc2)c(=O)n(C[C@H](N)c2ccccc2)c(=O)n1Cc1c(F)cccc1F [8-70]
Cc1c(-c2ccc(Cl)s2)c(=O)n(C[C@H](N)c2ccccc2)c(=O)n1Cc1c(F)cccc1F [8-75]
COc1ccc(-c2c(C)n(Cc3c(F)cccc3F)c(=O)n(C[C@H](N)c3ccccc3)c2=O)cc1 [8-100]

Source: patent US7462625B2, “Gonadotropin-releasing hormone receptor antagonists and methods relating thereto” (Neurocrine Biosciences, Inc., priority 2000, dated 2008)
